Marks after values point to notes of the source that are not given here.
What was measured:
[1] = oral NAC; cited from earlier work
schizophrenia = test: Randomised double blind multicentre placebo controlled trial of NAC in combination with an antipsychotic agent in schizophrenia; type: in vivo, human
Source text: There is preclinical evidence of a reduction in antioxidant defences in schizophrenia, particularly a reduction in glutathione, which is a primary endogenous antioxidant defence. N-acetyl cysteine (NAC) is a bioavailable precursor of glutathione. This Example is a randomised double blind multicentre placebo controlled trial of the use of NAC in combination with an antipsychotic agent in the treatment of schizophrenia. A total of 140 individuals were randomised to receive 2 g daily of NAC in two divided doses, or placebo, together with their normal dosage of antipsychotic agent.
Participants were assigned randomly and consecutively to treatment with NAC or placebo in a double blind fashion. The randomisation log was generated by an independent individual using the traditional coin tossing method. The investigators and clinicians remained blind until data analysis was completed. The person generating the randomisation schedule was not involved in participant interviews, either for participant eligibility or outcome measurements.
All participants remained on their usual antipsychotic medication for the duration of the trial. The dose of the primary therapy was monitored. Participants were recruited through advertisements, referral by case clinicians and through database screening. All participants provided written informed consent as part of complying with the protocol.
All randomised participants received two NAC (500 mg) capsules twice daily, to a total dose of 2 g daily, or matching placebo capsules. Human dosing can be up to 5 g/day without adverse effects (Louwerse E. S. et al., 1995). A daily dose that is within the range of efficacy in published clinical trials (Adair J. C. et al., 2001, Van Schooten F. J. et al., 2002, and Behr J, et al., 2002) was selected. Once per day dosing is desirable in the drug treatment of schizophrenia, where medication compliance is known to be a challenge in management. However, steady state plasma levels cannot be achieved with a once daily oral dose of NAC as the plasma half-life is only 2-3 hours (Holdiness M. R., 1991 and Kelly G. S., 1998). While a twice-daily (BID) dosing regimen would also not be expected to achieve steady state plasma levels, dose intervals beyond BID were considered to markedly increase the risk of non-compliance in this population.
To be included, the patients were required to meet Diagnostic and Statistical Manual of Mental Disorders, fourth edition (DSM-IV) (Association AP, 1994) criteria for schizophrenia and have a PANSS total score of ≧55, or at least two items in the positive and/or negative items being >3, or have a CGI-S≧3. They needed to have the capacity to consent to the study, and be aged between 18 and 65. Both inpatients and outpatients were eligible. Participants needed to be currently taking an antipsychotic agent and to be utilising effective contraception if female and of childbearing age. Exclusion criteria included patients with abnormal renal, hepatic, thyroid or haematological findings, patients with a systemic medical disorder including asthma, allergies or any history of bronchospasm, respiratory insufficiency and recent gastrointestinal ulcers and females who were positive on pregnancy screening testing at baseline. Participants who were taking a mood stabiliser (e.g. lithium, valproate and carbamazepine) were excluded as were those currently taking drugs that are known to prevent GSH depletion (500+mg of NAC/day, 200+ug of selenium/day or 500+IU of Vitamin E/day).
Withdrawal from the trial occurred if participants ceased taking their trial medication for seven consecutive days, or ceased effective contraception, or became pregnant. A change in primary antipsychotic from one medication to another required participants to be withdrawn from the study. Similarly, the addition of a mood stabiliser required withdrawal of the participant. Dose changes to existing medications were not an exclusion criterion, and this was monitored. […]

[2] = baseline to week 8, LOCF ANCOVA
[3] = baseline to week 24, LOCF ANCOVA
[4] = baseline to week 24, LOCF ANCOVA with treatment by investigator interaction
[5] = score at week 24, end of treatment

- Mean gain in weight at week 24 (schizophrenia; NAC group, n=33): 0.394 kg
- Mean weight gain at week 8 (schizophrenia; NAC group, n=43): 1.372 kg
Structure (SMILES): CC(=O)N[C@@H](CS)C(=O)O [NAC, N-acetyl cysteine]
- Plasma half-life [1]: 2 to 3 h
- Number of patients with clinician-observed improvement (CGI-S), NAC group versus placebo group (schizophrenia; 16 weeks of treatment): more than two-fold greater
- Range of CGI-S improvement from baseline in improved subjects (schizophrenia; 16 weeks of treatment): 1-3 points
- Effects on safety parameters, including vital signs, weight and clinical biochemistry values (schizophrenia; 24 weeks NAC 2 g daily): no significant effects
- GAF mean overall change from baseline to endpoint, NAC treatment group (schizophrenia; ANCOVA, within-group): +4.5 points
- PANSS scales, NAC versus placebo over all visits (schizophrenia; MMRM): did not detect a significant difference
- PANSS-Negative items 3 and 6 over all visits (schizophrenia; MMRM of individual items): significant (p<0.05) benefit
- Individual PANSS items at specific visits (schizophrenia; MMRM of individual items, weeks 2, 4, 8, 16, 20, 24): significant (p<0.05) improvements on several items
- GAF average improvement over all visits, NAC group (schizophrenia; MMRM, within-group): +3.1 points
- CGI-S: Within NAC Group Week 8 Mean Overall Change (95% CI) (schizophrenia; NAC 2 g daily plus usual antipsychotic, baseline to week 8, LOCF ANCOVA): −0.32 (−0.48, −0.15)**
- Functioning as measured by the GAF scale or the SOFAS, between groups (schizophrenia; NAC versus placebo): no between-group differences
- Effect size (Cohen's d statistic) on the BAS (schizophrenia; after 24 weeks of NAC treatment): 0.44
- BAS: Within NAC Group Week 8 Mean Overall Change (95% CI) (schizophrenia; akathisia, baseline to week 8, LOCF ANCOVA): −0.23 (−0.58, 0.11)
- BAS: Within NAC Group Week 24 Mean Overall Change (95% CI) (schizophrenia; akathisia, baseline to week 24, LOCF ANCOVA): −0.42 (−0.77, −0.06)*
- AIMS: Within NAC Group Week 8 Mean Overall Change (95% CI) (schizophrenia; [2]): 0.08 (−0.48, 0.65)
- GAF: Within NAC Group Week 8 Mean Overall Change (95% CI) (schizophrenia; [2]): 2.7 (0.22, 5.3)*
- PANSS General: Within NAC Group Week 8 Mean Overall Change (95% CI) (schizophrenia; [2]): −1.7 (−3.2, −0.26)*
- PANSS Negative: Within NAC Group Week 8 Mean Overall Change (95% CI) (schizophrenia; [2]): −0.18 (−1.2, 0.82)
- PANSS Positive: Within NAC Group Week 8 Mean Overall Change (95% CI) (schizophrenia; [2]): −1.6 (−2.6, −0.64)*
- PANSS Total: Within NAC Group Week 8 Mean Overall Change (95% CI) (schizophrenia; [2]): −3.6 (−6.3, −0.90)*
- SAS: Within NAC Group Week 8 Mean Overall Change (95% CI) (schizophrenia; [2]): −0.05 (−0.30, 0.21)
- SOFAS: Within NAC Group Week 8 Mean Overall Change (95% CI) (schizophrenia; [2]): −0.25 (−3.5, 3.0)
- AIMS: Within NAC Group Week 24 Mean Overall Change (95% CI) (schizophrenia; [3]): −0.44 (−1.03, 0.16)
- CGI-S: Within NAC Group Week 24 Mean Overall Change (95% CI) (schizophrenia; [3]): −0.35 (−0.56, −0.14)*
- GAF: Within NAC Group Week 24 Mean Overall Change (95% CI) (schizophrenia; [3]): 4.5 (1.5, 7.5)*
- PANSS Positive: Within NAC Group Week 24 Mean Overall Change (95% CI) (schizophrenia; [3]): −2.3 (−3.49, −1.09)**
- SAS: Within NAC Group Week 24 Mean Overall Change (95% CI) (schizophrenia; [3]): −0.17 (−0.46, 0.13)
- SOFAS: Within NAC Group Week 24 Mean Overall Change (95% CI) (schizophrenia; [3]): −0.69 (−4.99, 3.6)
- PANSS General: Within NAC Group Week 24 Mean Overall Change (95% CI) (schizophrenia; [4]): −4.4 (−6.39, −2.48)^d**
- PANSS Negative: Within NAC Group Week 24 Mean Overall Change (95% CI) (schizophrenia; [4]): −1.6 (−2.71, −0.46)^d
- PANSS Total: Within NAC Group Week 24 Mean Overall Change (95% CI) (schizophrenia; [4]): −8.8 (−12.2, −5.5)^d**
- Adverse events, NAC group compared to placebo group (schizophrenia; checklist of 44 somatic items): No reported event was significantly more common
- Eye irritation, NAC treatment group compared to placebo (schizophrenia; checklist of 44 somatic items): significantly less
- SAS or AIMS scores, placebo versus NAC over all visits (schizophrenia; over all visits): no significant differences
- CGI-I: Within NAC Group Week 8 Mean (95% CI) (schizophrenia; score at that time point (no baseline score), week 8, NAC 2 g daily plus antipsychotic): 3.1 (2.9, 3.4)
- CGI-I: Within NAC Group Week 24 Mean (95% CI) (schizophrenia; score at that time point (no baseline score), week 24): 2.9 (2.6, 3.1)
- CGI-I: NAC Mean (95% CI) at post-treatment discontinuation (schizophrenia; score at that time point, washout, week 28): 2.9 (2.5, 3.4)
- AIMS: NAC Mean Week 24 (SD) (schizophrenia; [5]): 2.2 (3.5)
- BAS: NAC Mean Week 24 (SD) (schizophrenia; [5]): 0.42 (0.93)
- CGI-I: NAC Mean Week 24 (SD) (schizophrenia; [5]): 2.9 (0.93)
- CGI-S: NAC Mean Week 24 (SD) (schizophrenia; [5]): 3.5 (1.0)
- GAF: NAC Mean Week 24 (SD) (schizophrenia; [5]): 54.4 (15.4)

From US20100099762A1, “COMBINATION THERAPY” (THE MENTAL HEALTH RESEARCH INSTITUTE OF VICTORIA, priority 2006, published 2010)
